pIC50: −log10 of the molar value.

Twelve compounds from patent US20150005288A1, “SUBSTITUTED PHENYLIMIDAZOPYRAZOLES AND USE THEREOF” (Bayer Intellectual Property GmbH, priority 2012, published 2015) can be followed below.

The assay concerns the target T1, intracellular domain of human Tie2 (GST fusion protein) (Homo sapiens, UniProt Q02763).
T1 construct: intracellular domain of human Tie2 (amino acids 776-1124); made in house; host or cells: Baculovirus-infected insect cells (Hi5)
Kind of assay: Tie2 kinase assay (Tie2-TR-FRET). It is filed as biochemical. As to conditions: ATP concentration 1 mM, in some cases means of several independent determinations. The method, then:
The Tie2-inhibitory activity of the substances according to the invention was determined with the aid of one of the Tie2-TR-FRET assays described in the sections below at an ATP concentration of 1 mM (TR-FRET=Time-Resolved Fluorescence Resonance Energy Transfer):
The enzyme used was a recombinant fusion protein of glutathione S-transferase (GST) and the intracellular domain of human Tie2 (amino acids 776-1124) which was expressed in Baculovirus-infected insect cells (Hi5) and was purified by affinity chromatography on glutathione-Sepharose. Alternatively, it is also possible to use commercially available GST-His6-Tie2 fusion protein (ProQinase GmbH, Freiburg im Breisgau, Germany). The substrate used for the kinase reaction was the biotinylated peptide biotin-Ahx-[…] (C-terminus in amide form) which is commercially available (for example from Biosyntan, Berlin, Germany).
For the assay, 50 nl of a 100-fold concentrated solution of the respective test substance in DMSO were pipetted into a black low-volume 384-well microtitre plate (Greiner Bio-One, Frickenhausen, Germany) 2 μl of a solution of the Tie2 fusion protein in assay buffer [50 mM HEPES/HCl pH 7, 10 mM MgCl2, 2.5 mM MnCl2, 1 mM dithiothreitol, 0.01% (v/v) Nonidet P-40, 0.1% (w/v) bovine serum albumin (BSA), 1× Complete EDTA-free protease inhibitor mixture (Roche)] were added, and the mixture was incubated for 15 min to allow pre-binding of the substance to the enzyme prior to the kinase reaction. The kinase reaction was then started by adding 3 μl of a solution of adenosine triphosphate (ATP, 1.67 mM→final concentration in 5 μl assay volume=1 mM) and substrate (1.67 μM→final concentration in 5 μl assay volume=1 μM) in assay buffer, and the resulting mixture was incubated for a reaction time of 60 min at 22° C. The concentration of the Tie2 fusion protein was adapted to the respective activity of the enzyme and adjusted such that the assay was carried out in the linear range. Typical concentrations were in the range of 30 ng/ml.
The reaction was stopped by addition of 5 μl of a solution of TR-FRET detection reagents [200 nM streptavidin-XL665 and 2 nM PT66-Eu chelate, a europium chelate-labelled anti-phosphotyrosine antibody (Perkin-Elmer); alternatively, it is also possible to use PT66-Tb cryptate (Cisbio Bioassays, Codolet, France)] in aqueous EDTA solution[90 mM EDTA, 0.28% (w/v) bovine serum albumin (BSA) in 50 mM HEPES pH 7.5]. The resulting mixture was incubated at 22° C. for 1 h to allow formation of the complex of the biotinylated phosphorylated substrate and the detection reagents. The amount of phosphorylated substrate was then determined by measuring the resonance energy transfer from PT66-Eu chelate to streptavidin-XL665. To this end, the fluorescence emissions at 620 nm and 665 nm after excitation at 350 nm were measured in a TR-FRET measuring instrument (for example Viewlux, Perkin-Elmer). The ratio of the emissions at 665 nm and at 620 nm was taken as a measure of the amount of phosphorylated substrate.
Usually, the test substance in question was tested on the same microtitre plate at […] different concentrations in the range from 20 μM to 0.073 nM (for example at 20 μM, 5.7 μM, 1.6 μM, 0.47 μM, 0.13 μM, 38 nM, 11 nM, 3.1 nM, 0.89 nM, 0.25 nM and 0.073 nM) in duplicate for each concentration. The dilution series were prepared prior to the assay at the stage of the 100-fold concentrated solution by serial dilution (the exact concentrations may vary depending on the pipettors used in each case). IC50 values were calculated using a 4-parameter fit, with the aid of inhouse software.
Table 1 below lists the IC50 values from this assay for individual working examples (in some cases as means of several independent individual determinations): […]
Background: TR-FRET usually uses a lanthanide donor and a delayed reading to cut background.

T1 sequence (Q02763 776-1124): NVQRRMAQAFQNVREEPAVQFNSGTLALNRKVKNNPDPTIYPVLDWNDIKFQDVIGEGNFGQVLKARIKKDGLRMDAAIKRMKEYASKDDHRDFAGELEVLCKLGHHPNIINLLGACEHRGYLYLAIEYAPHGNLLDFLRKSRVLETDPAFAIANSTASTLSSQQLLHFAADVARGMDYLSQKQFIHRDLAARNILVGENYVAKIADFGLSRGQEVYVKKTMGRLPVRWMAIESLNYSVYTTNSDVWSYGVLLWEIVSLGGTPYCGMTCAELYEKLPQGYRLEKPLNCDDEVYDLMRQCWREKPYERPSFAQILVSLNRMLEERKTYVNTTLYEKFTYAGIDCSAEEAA

The term pIC50 denotes −log10 of the IC50, conventionally taken in molar units. In the case of `Cc1ccc(NC(=O)c2cc(N3CCNCC3)cc(S(F)(F)(F)(F)F)c2)cc1-n1ccn2nc(-c3cn[nH]c3)cc12` [Example 1, N-{4-Methyl-3-[6-(1H-pyrazol-4-yl)-1H-imidazo[1,2-b]pyrazol-1-yl]phenyl}-3-(pentafluoro-λ^6-sulphanyl)-5-(piperazin-1-yl)benzamide], the pIC50 is 9.52.
The value for `Cc1ccc(NC(=O)c2cc(N3CCN(C)CC3)cc(C(F)(F)F)c2)cc1-n1ccn2nc(-c3cccnc3)cc12` [Example 41, 3-(4-Methylpiperazin-1-yl)-N-{4-methyl-3-[6-(pyridin-3-yl)-1H-imidazo[1,2-b]pyrazol-1-yl]-phenyl}-5-(trifluoromethyl)benzamide] was 7.46; that for `COc1ccc(NC(=O)c2cccc(S(F)(F)(F)(F)F)c2)cc1-n1ccn2nc(-c3cccnc3)cc12` [Example 72, N-{4-Methoxy-3-[6-(pyridin-3-yl)-1H-imidazo[1,2-b]pyrazol-1-yl]phenyl}-3-(pentafluoro-λ^6-sulphanyl)benzamide] was 6.46.
Consider `Cc1ccc(NC(=O)c2cc(C#N)cc(S(F)(F)(F)(F)F)c2)c(O)c1-n1ccn2nc(-c3cccnc3)cc12` [Example 156, 3-Cyano-N-{2-hydroxy-4-methyl-3-[6-(pyridin-3-yl)-1H-imidazo[1,2-b]pyrazol-1-yl]phenyl}-5-(pentafluoro-λ^6-sulphanyl)benzamide], for which the negative-log IC50 (pIC50) was 8.23.
Compound `Cc1ccc(NC(=O)c2cc(OC3CNC3)cc(S(F)(F)(F)(F)F)c2)cc1-n1ccn2nc(-c3cccnc3)cc12` [Example 24, 3-(Azetidin-3-yloxy)-N-{4-methyl-3-[6-(pyridin-3-yl)-1H-imidazo[1,2-b]pyrazol-1-yl]phenyl}-5-(pentafluoro-λ^6-sulphanyl)benzamide] had a negative logarithm of the IC50 (pIC50) of 9.10.
Compound `Cc1cc(C)c(-n2ccn3nc(-c4cccnc4)cc23)cc1NC(=O)c1cc(CC(=O)O)cc(S(F)(F)(F)(F)F)c1` [Example 151, [3-({2,4-Dimethyl-5-[6-(pyridin-3-yl)-1H-imidazo[1,2-b]pyrazol-1-yl]phenyl}carbamoyl)-5-(pentafluoro-λ^6-sulphanyl)phenyl]acetic acid] gave a negative-log IC50 (pIC50) of 8.21. Against the preceding compound, the pIC50 is 0.89 log units lower.
On to `Cc1c(F)cc(NC(=O)c2cccc(S(F)(F)(F)(F)F)c2)cc1-n1ccn2nc(-c3cccnc3)cc12` [Example 103, N-{3-Fluoro-4-methyl-5-[6-(pyridin-3-yl)-1H-imidazo[1,2-b]pyrazol-1-yl]phenyl}-3-(pentafluoro-λ^6-sulphanyl)benzamide], for which the pIC50 was 6.89. This pIC50 lies 1.32 log units lower than the previous one.
With `Cc1cc(C)c(-n2ccn3nc(-c4cccnc4)cc23)cc1NC(=O)c1cccc(OC(F)F)c1` [Example 128, N-{2,4-Dimethyl-5-[6-(pyridin-3-yl)-1H-imidazo[1,2-b]pyrazol-1-yl]phenyl}-3-(difluoromethoxy)-benzamide], the pIC50 was 7.37.
In turn, `Cc1ccc(NC(=O)c2cc(N3CCOCC3)cc(S(F)(F)(F)(F)F)c2)cc1-n1ccn2nc(-c3cccnc3)cc12` [Example 19, N-{4-Methyl-3-[6-(pyridin-3-yl)-1H-imidazo[1,2-b]pyrazol-1-yl]phenyl}-3-(morpholin-4-yl)-5-(pentafluoro-λ^6-sulphanyl)benzamide] had a pIC50 of 9.05. This pIC50 lies 1.68 log units higher than the previous one.
In the case of `Cc1ccc(NC(=O)c2cc(C#N)nc(C(C)(C)C)c2)cc1-n1ccn2nc(-c3cccnc3)cc12` [Example 93, 2-tert-Butyl-6-cyano-N-{4-methyl-3-[6-(pyridin-3-yl)-1H-imidazo[1,2-b]pyrazol-1-yl]phenyl}-isonicotinamide] it was 7.72.
On to `CCCOc1cccc(C(=O)Nc2ccc(C)c(-n3ccn4nc(-c5cccnc5)cc34)c2)c1` [Example 61, N-{4-Methyl-3-[6-(pyridin-3-yl)-1H-imidazo[1,2-b]pyrazol-1-yl]phenyl}-3-propoxybenzamide], for which the pIC50 was 6.59.
In the case of `Cc1ccc(NC(=O)c2cc(CO)cc(S(F)(F)(F)(F)F)c2)cc1-n1ccn2nc(-c3cccnc3)cc12` [Example 31, 3-(Hydroxymethyl)-N-{4-methyl-3-[6-(pyridin-3-yl)-1H-imidazo[1,2-b]pyrazol-1-yl]phenyl}-5-(pentafluoro-λ^6-sulphanyl)benzamide] it was 8.96.
